# Assay results taken from patent US6677310B1, “Ring-expanded nucleosides and nucleotides” (Nabi, priority 1999, dated 2004).
# Key:
# MOLT-4 = test: SRB anti-cancer assay, Leukemia; assay type: cell-based, human; details: MOLT-4 (Leukemia), 48 h; for CC50: read-out: LC50 (the source's name)
# HT29 = test: SRB anti-cancer assay, Colon Cancer; assay type: cell-based, human; details: 48 h; for CC50: read-out: LC50 (the source's name)
# LOX IMVI = test: SRB anti-cancer assay, Melanoma; assay type: cell-based, human; details: 48 h; for CC50: read-out: LC50 (the source's name)
# SK-MEL-5 = test: SRB anti-cancer assay, Melanoma; assay type: cell-based, human; details: SK-MEL-5 (Melanoma), 48 h; for CC50: read-out: LC50 (the source's name)
# IGROV1 = test: SRB anti-cancer assay, Ovarian Cancer; assay type: cell-based, human; details: 48 h; for CC50: read-out: LC50 (the source's name)
# TK-10 = test: SRB anti-cancer assay, Renal Cancer; assay type: cell-based, human; details: TK-10 (Renal Cancer), 48 h; for CC50: read-out: LC50 (the source's name)
# MCF7 = test: SRB anti-cancer assay, Breast Cancer; assay type: cell-based, human; details: 48 h; for CC50: read-out: LC50 (the source's name)
# HS 578T = test: SRB anti-cancer assay, Breast Cancer; assay type: cell-based, human; details: HS 578T (Breast Cancer), 48 h; for CC50: read-out: LC50 (the source's name)
# [1] = tested on: HBV ribonucleic acids (RNA); test: HBV RNA levels in 2.2.15 cells (blot hybridization); assay type: cell-based, Hepatitis B virus; details: 10 μM, day 9, 2.2.15 cells
# Experimental: Anti-HBV activity and the toxicity against confluent 2.2.15 cells were determined by the previously described procedure (Korba, B. E., et al. Antivir. Res., 19:55-70, 1992; Korba, B. E., et al. Antivir. Res., 15:217-228, 1991). Briefly, confluent cultures of HBV transfected 2.2.15 cells were maintained on either 96-well or 24-well flat-bottomed tissue culture plates in RPMI 1640 medium with 2% fetal bovine serum (FBS). The cells were treated with test compounds daily for nine consecutive days. The culture media were harvested on day 9 to quantify the amount of virion DNA. On day 10, the cells were lysed to quantify the amount of intracellular HBV replicative intermediates (RI). The quantification of virion DNA and the HBV RI were done by blot hybridization methods (Korba, B. E., et al. Antivir. Res., 19:55-70, 1992; Korba, B. E., et al. Antivir. Res., 15:217-228, 1991). Cellular toxicity against separate cultures of confluent 2.2.15 cells was measured after treatment with the compounds for nine days under identical culture conditions as those used for the antiviral assay (Korba, B. E., et al. Antivir. Res., 19:55-70, 1992). Uptake of neutral red dye by treated cells was compared with dye uptake by untreated control cells (Korba, B. E., et al. Antivir. Res., 19:55-70, 1992).
# These compounds were evaluated for their ability to inhibit viral RNA synthesis in 2.2.15 cells. Since HBV uses host cellular RNA polymerase II during the transcription of viral RNA from the covalently closed circular HBV DNA during its replication, any effect on the synthesis of viral RNA by these compounds would mean interference with the cellular RNA polymerase which could lead to unacceptable cellular toxicity.
# [2] = tested on: HBV proteins (HBsAg, HBcAg, HBeAg); test: HBV protein levels in 2.2.15 cells (semi-quantitative EIA); assay type: cell-based, Hepatitis B virus; details: 10 μM, day 9, 2.2.15 cells
# [3] = tested on: herpes simplex virus (HSV)-1; test: Antiviral test against HSV-1; assay type: cell-based
# Experimental: (§1) These compounds were also tested for their effects on HIV (Weislow, O. , et al., J. Natl. Cancer Inst., 81:577-586, 1989), herpes simplex virus (HSV)-1, HSV-2, cytomegalovirus (CMV), Varicella Zoster virus (VZV) and Epstein-Barr virus (EBV) replication (National Institute of Allergy and Infectious Diseases (NIAID), NIH, Bethesda, Md.).
# HSV-2 = test: Antiviral test against HSV-2; assay type: cell-based
# Experimental: as §1
# cytomegalovirus (CMV) = test: Antiviral test against CMV; assay type: cell-based
# Experimental: as §1
# Epstein-Barr virus (EBV) = test: Antiviral test against EBV; assay type: cell-based
# Experimental: as §1
# HOP-92 = assay type: cell-based, human; details: HOP-92 (Non-Small Cell Lung Cancer), 48 h; for CC50: read-out: LC50 (the source's name)
# SF-539 = test: SRB anti-cancer assay, CNS Cancer; assay type: cell-based, human; details: SF-539 (CNS Cancer), 48 h
# U251 = test: SRB anti-cancer assay, CNS Cancer; assay type: cell-based, human; details: 48 h; for CC50: read-out: LC50 (the source's name)
# RXF 393 = test: SRB anti-cancer assay, Renal Cancer; assay type: cell-based, human; details: RXF 393 (Renal Cancer), 48 h; for CC50: read-out: LC50 (the source's name)
# BT-549 = test: SRB anti-cancer assay, Breast Cancer; assay type: cell-based, human; details: BT-549 (Breast Cancer), 48 h; for CC50: read-out: LC50 (the source's name)
structure (smiles),measurement,setting,value
"N=c1nc(N)c2ncn([C@@H]3O[C@H](COC(=O)c4ccccc4)[C@@H](OC(=O)c4ccccc4)[C@H]3OC(=O)c3ccccc3)c2c(N)n1 [4,8-Diamino-6H-6-imino-1(2′,3′,5′-tri-O-benzoyl-β-D-ribofuranosyl)imidazo[4,5-e][1,3]diazepine]",GI50,MOLT-4,2.31 µM
same,TGI,MOLT-4,7.08 µM
same,CC50,MOLT-4,> 100 µM
same,GI50,HT29,2.58 µM
same,TGI,HT29,10.3 µM
same,CC50,HT29,42.3 µM
same,GI50,LOX IMVI,3.01 µM
same,TGI,LOX IMVI,>100 µM
same,CC50,LOX IMVI,> 100 µM
same,GI50,SK-MEL-5,1.36 µM
same,TGI,SK-MEL-5,2.64 µM
same,CC50,SK-MEL-5,5.16 µM
same,GI50,IGROV1,5.13 µM
same,TGI,IGROV1,20.3 µM
same,CC50,IGROV1,66.7 µM
same,GI50,TK-10,21.3 µM
same,TGI,TK-10,82.2 µM
same,CC50,TK-10,> 100 µM
same,GI50,MCF7,1.47 µM
same,TGI,MCF7,3.12 µM
same,CC50,MCF7,6.61 µM
same,GI50,HS 578T,15.8 µM
same,TGI,HS 578T,40.1 µM
same,CC50,HS 578T,> 100 µM
"N=c1[nH]c(=O)c2ncn([C@@H]3O[C@H](CO)[C@@H](O)[C@H]3O)c2c(=O)[nH]1 [Compound 14-1, 6-Imino-6H-1-β-D-ribofuranosyl-4,5,7,8-tetrahydroimidazo[4,5-e][1,3]diazepine-4,8-dione]","2.1 Kb RNA, percentage of control",[1],96 ± 7%
same,"3.6 Kb RNA, percentage of control",[1],89 ± 9%
same,"HBcAg, percentage of control",[2],75 ± 4%
same,"HBeAg, percentage of control",[2],50 ± 5 %
same,"HBsAg, percentage of control",[2],67 ± 6%
same,antiviral activity against HSV-1,[3],no antiviral activity
same,antiviral activity against HSV-2,HSV-2,no antiviral activity
same,antiviral activity against CMV,cytomegalovirus (CMV),no antiviral activity
same,antiviral activity against EBV,Epstein-Barr virus (EBV),no antiviral activity
same,GI50,MOLT-4,> 100 µM
same,TGI,MOLT-4,>100 µM
same,CC50,MOLT-4,> 100 µM
same,GI50,HOP-92,> 100 µM
same,TGI,HOP-92,>100 µM
same,CC50,HOP-92,> 100 µM
same,GI50,SF-539,> 100 µM
same,TGI,SF-539,>100 µM
same,CC50,SF-539; read-out: LC50 (the source's name),> 100 µM
same,GI50,U251,> 100 µM
same,TGI,U251,>100 µM
same,CC50,U251,> 100 µM
same,TGI,RXF 393,>100 µM
same,CC50,RXF 393,> 100 µM
same,GI50,BT-549,> 100 µM
same,TGI,BT-549,>100 µM
same,CC50,BT-549,> 100 µM
"N=c1nc(N)c2ncn([C@@H]3O[C@H](CO)[C@@H](O)[C@H]3O)c2c(N)n1 [Compound 14-2, 4,8-Diamino-6H-6-imino-1-β-D-ribofuranosylimidazo[4,5-e][1,3]diazepine]","2.1 Kb RNA, percentage of control",[1],96 ± 8%
same,"3.6 Kb RNA, percentage of control",[1],103 ± 9%
same,"HBcAg, percentage of control",[2],109 ± 6%
same,"HBeAg, percentage of control",[2],8 ± 3 %
same,"HBsAg, percentage of control",[2],108 ± 18%
same,antiviral activity against HSV-1,[3],no antiviral activity
same,antiviral activity against HSV-2,HSV-2,no antiviral activity
same,antiviral activity against CMV,cytomegalovirus (CMV),no antiviral activity
same,antiviral activity against EBV,Epstein-Barr virus (EBV),no antiviral activity
same,GI50,HOP-92,19.2 µM
same,TGI,HOP-92,40 µM
same,CC50,HOP-92,83.7 µM
same,GI50,HT29,10.4 µM
same,TGI,HT29,35.7 µM
same,CC50,HT29,> 100 µM
same,GI50,U251,20.1 µM
same,TGI,U251,45 µM
same,CC50,U251,> 100 µM
same,GI50,LOX IMVI,7.16 µM
same,TGI,LOX IMVI,21.3 µM
same,CC50,LOX IMVI,51.2 µM
same,GI50,SK-MEL-5,10.8 µM
same,TGI,SK-MEL-5,23.5 µM
same,CC50,SK-MEL-5,50.9 µM
same,GI50,IGROV1,14 µM
same,TGI,IGROV1,30.5 µM
same,CC50,IGROV1,66.3 µM
same,GI50,RXF 393,7.51 µM
same,TGI,RXF 393,25.6 µM
same,CC50,RXF 393,74.2 µM
same,GI50,TK-10,15.1 µM
same,TGI,TK-10,31.2 µM
same,CC50,TK-10,64.6 µM
same,GI50,MCF7,5.81 µM
same,TGI,MCF7,22.3 µM
same,CC50,MCF7,63.4 µM
same,GI50,HS 578T,7.58 µM
same,TGI,HS 578T,31.6 µM
same,CC50,HS 578T,> 100 µM
same,GI50,BT-549,15.6 µM
same,TGI,BT-549,32.2 µM
same,CC50,BT-549,66.4 µM
